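Exposure lasted 48 hours, with cells grown in 96-well plates and compounds tested at five concentrations. GI50 is the concentration that inhibits growth by half.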 Calls of active or inactive are those of the source. Cut-off read from the data, not from the text of the source: active = GI50 up to about 1.1 µM and inactive = higher.
Assays:
Assay in all cases: inhibition of tumour cell growth, NCI panel, 48 h
NCI-H522 = tested on: NCI-H522
A498 = tested on: A498
PC-3 = tested on: PC-3
K562 = tested on: K562
SR = tested on: SR
HCT-15 = tested on: HCT-15
SF-539 = tested on: SF-539
Malme-3M = tested on: Malme-3M
ACHN = tested on: ACHN
COLO 205 = tested on: COLO 205
CAKI-1 = tested on: CAKI-1
DLD-1 = tested on: DLD-1
NCI/ADR-RES = tested on: NCI/ADR-RES
SK-OV-3 = tested on: SK-OV-3
NCI-H226 = tested on: NCI-H226
MCF7 = tested on: MCF7
MOLT-4 = tested on: MOLT-4
UO-31 = tested on: UO-31
HCT-116 = tested on: HCT-116
KM12 = tested on: KM12

Row | Compound | GI50 (NCI-H522) | GI50 (A498) | GI50 (PC-3) | GI50 (K562) | GI50 (SR) | GI50 (HCT-15) [µM] | GI50 (SF-539) | GI50 (Malme-3M) | GI50 (ACHN) | GI50 (COLO 205) | GI50 (CAKI-1) | GI50 (DLD-1) | GI50 (NCI/ADR-RES) | GI50 (SK-OV-3) | GI50 (NCI-H226) | GI50 (MCF7) | GI50 (MOLT-4) | GI50 (UO-31) | GI50 (HCT-116) | GI50 (KM12)
1 | C/C(=N\N)C(CN(C)C)C(c1ccccc1)c1c(O)c2ccccc2oc1=O (stereo not given) | > 94.4 µM (inactive) | > 100 µM (inactive) | > 100 µM (inactive) | > 60 µM (inactive) | > 67.1 µM (inactive) | > 100 | > 100 µM (inactive) | > 94.2 µM (inactive) | 99.5 µM (inactive) | > 100 µM (inactive) | > 100 µM (inactive) | > 100 µM (inactive) | > 100 µM (inactive) | > 100 µM (inactive) | > 100 µM (inactive) | > 100 µM (inactive) | > 55.5 µM (inactive) | > 100 µM (inactive) | > 80 µM (inactive) | > 100 µM (inactive)
2 | NN | 335 µM (inactive) | 317 µM (inactive) | 628 µM (inactive) | 88.7 µM (inactive) | 100 µM (inactive) | 296 | 582 µM (inactive) | 881 µM (inactive) | 593 µM (inactive) | 328 µM (inactive) | 445 µM (inactive) | 296 µM (inactive) | 740 µM (inactive) | 1240 µM (inactive) | 481 µM (inactive) | 179 µM (inactive) | 193 µM (inactive) | 434 µM (inactive) | 192 µM (inactive) | 480 µM (inactive)
